Assay results: BigSolDB 2.1

O=C(N[C@H](Cc1ccccc1)C(=O)O)OCC1c2ccccc2-c2ccccc21
solubility (mole fraction)
Conditions	283.15 K	288.15 K	293.15 K	298.15 K	303.15 K	308.15 K	313.15 K	318.15 K	323.15 K
in 2-butanone	0.00646	0.00728	0.00803	0.00895	0.00993	0.0112	0.0133	0.015	0.017
in acetone	0.00728	0.00759	0.00837	0.00931	0.0109	0.0128	0.0146	0.0164	0.0193
in acetonitrile	0.000619	0.00066	0.000723	0.00084	0.000952	0.00117	0.00138	0.00168	0.00203
in ethanol	0.00161	0.00173	0.00187	0.00205	0.0024	0.00278	0.00324	0.004	0.00515
in ethyl acetate	0.00272	0.003	0.00342	0.00379	0.00443	0.00504	0.00571	0.00682	0.00793
in isopropanol	0.000943	0.00103	0.00114	0.00126	0.00155	0.00208	0.00263	0.00311	0.00375
in methanol	0.00189	0.00192	0.00199	0.00212	0.00243	0.00285	0.00331	0.0039	0.00513
in methyl acetate	0.00327	0.00358	0.00408	0.00458	0.00537	0.00623	0.0072	0.00884	0.0105
in n-butanol	0.00121	0.00136	0.00156	0.00181	0.0022	0.00261	0.00322	0.00389	0.00511
in n-butyl acetate	0.00209	0.00227	0.00243	0.00278	0.00305	0.00352	0.00409	0.0046	0.00536
in n-propanol	0.00161	0.00168	0.00178	0.0019	0.00217	0.00252	0.00316	0.00365	0.00456
in n-propyl acetate	0.0023	0.00244	0.00275	0.00318	0.00354	0.00405	0.00467	0.00534	0.00613
